Reference: patent US8415342B2, “Besifloxacin ophthalmic composition for the treatment or control of infection” (Bausch & Lomb Incorporated, priority 2008, dated 2013)
Converted amounts (≈) assume the structure as drawn. Read-outs that look alike come from different tables or passages of the source.

What was measured:
Type in all cases: cell-based
Legionella pneumophila = assay: microbe, parasite or virus in culture
[1] = test system: Lancefield group C, F, G streptococci; assay: MIC, CLSI broth microdilution, clinical isolates; details: G streptococci (N = 50)
[2] = test system: Staphylococcus saprophyticus; assay: MIC, CLSI broth microdilution, clinical isolates; details: Staphylococcus saprophyticus (N = 101)
Citrobacter koseri = assay: MIC, CLSI broth microdilution, clinical isolates; details: Citrobacter koseri (N = 100)
[3] = test system: Staphylococcus lugdunensis; assay: MIC, CLSI broth microdilution, clinical isolates; details: Staphylococcus lugdunensis (N = 15)
Moraxella catarrhalis = assay: MIC, CLSI broth microdilution, clinical isolates; details: Moraxella catarrhalis (N = 101)
[4] = test system: Staphylococcus haemolyticus; assay: MIC, CLSI broth microdilution, clinical isolates; details: Staphylococcus haemolyticus (N = 101)
Streptococcus agalactiae = assay: MIC, CLSI broth microdilution, clinical isolates; details: Streptococcus agalactiae (N = 100)
Haemophilus influenzae = assay: MIC, CLSI broth microdilution, clinical isolates; details: for MIC50 / MIC90: Haemophilus influenzae
Staphylococcus aureus = assay: MIC, CLSI broth microdilution, clinical isolates; details: for MIC50 / MIC90: Staphylococcus aureus
Staphylococcus warneri = assay: MIC, CLSI broth microdilution, clinical isolates; details: Staphylococcus warneri (N = 50)
Streptococcus pyogenes = assay: MIC, CLSI broth microdilution, clinical isolates; details: Streptococcus pyogenes (N = 101)
Viridans streptococci = assay: MIC, CLSI broth microdilution, clinical isolates; details: Viridans streptococci (N = 156)
Klebsiella oxytoca = assay: MIC, CLSI broth microdilution, clinical isolates; details: Klebsiella oxytoca (N = 50)
Streptococcus pneumoniae = assay: MIC, CLSI broth microdilution, clinical isolates
[5] = test system: Staphylococcus epidermidis; assay: MIC, CLSI broth microdilution, clinical isolates; details: for MIC50: Staphylococcus epidermidis
Staphylococcus hominis = assay: MIC, CLSI broth microdilution, clinical isolates; details: Staphylococcus hominis (N = 50)
Morganella morganii = assay: MIC, CLSI broth microdilution, clinical isolates; details: Morganella morganii (N = 51)
[6] = Haemophilus influenzae (all phenotypes, N = 40)
[7] = Haemophilus influenzae (bla negative, N = 24)
[8] = Haemophilus influenzae (bla positive, N = 16)
[9] = Staphylococcus aureus (CNS, N = 16)
[10] = Staphylococcus aureus (CS, N = 14)
[11] = Staphylococcus aureus (MSSA, N = 19)
[12] = Staphylococcus aureus (all phenotypes, N = 30)
[13] = MRSA, Staphylococcus aureus (MRSA, N = 11)
[14] = MSSA, Staphylococcus aureus (MSSA, N = 19)
[15] = Streptococcus pneumoniae (PSSP, N = 31)
[16] = Staphylococcus epidermidis (CNS, N = 6)
[17] = Staphylococcus epidermidis (CS, N = 9)
[18] = Staphylococcus epidermidis (MRSE, N = 9)
[19] = Staphylococcus epidermidis (MSSE, N = 6)
[20] = Staphylococcus epidermidis (all phenotypes, N = 15)

NC[C@H]1O[C@H](O[C@H]2[C@H](O)[C@@H](O[C@H]3O[C@H](CO)[C@@H](O)[C@H](N)[C@H]3O)[C@H](N)C[C@@H]2N)[C@H](N)C[C@@H]1O [Tobramycin]
MIC50 (Legionella pneumophila; Legionella pneumophila): 1 µg/mL (≈ 2.14 µM) | MIC90 (Legionella pneumophila; Legionella pneumophila): 2 µg/mL (≈ 4.28 µM) | MIC Range (Legionella pneumophila; Legionella pneumophila (N = 50)): 0.25 to 4 µg/mL | MIC Range [1]: 2 to 32 µg/mL | MIC50 ([1]; read-out: MIC50): 8 µg/mL (≈ 17.1 µM) | MIC90 ([1]; read-out: MIC90): 16 µg/mL (≈ 34.2 µM) | % S [2]: 99.0% | MIC50 [2]: 0.015 µg/mL (≈ 0.0321 µM) | MIC90 [2]: 0.06 µg/mL (≈ 0.128 µM) | MIC Range [2]: ≦0.008-32 μg/mL | % S (Citrobacter koseri): 99.0% | MIC50 (Citrobacter koseri): 0.5 µg/mL (≈ 1.07 µM) | MIC90 (Citrobacter koseri): 1 µg/mL (≈ 2.14 µM) | MIC Range (Citrobacter koseri): 0.25 to 16 µg/mL | % S [3]: 60.0% | MIC50 [3]: 0.12 µg/mL (≈ 0.257 µM) | MIC90 [3]: 32 µg/mL (≈ 68.4 µM) | MIC50 (Moraxella catarrhalis): 0.25 µg/mL (≈ 0.535 µM) | MIC90 (Moraxella catarrhalis): 0.25 µg/mL (≈ 0.535 µM) | MIC Range (Moraxella catarrhalis): 0.03 to 0.5 µg/mL | % S [4]: 64.4% | MIC50 [4]: 2 µg/mL (≈ 4.28 µM) | MIC90 [4]: 32 µg/mL (≈ 68.4 µM) | MIC50 (Streptococcus agalactiae; read-out: MIC50): 32 µg/mL (≈ 68.4 µM) | MIC90 (Streptococcus agalactiae; read-out: MIC90): 64 µg/mL (≈ 137 µM) | MIC Range (Haemophilus influenzae; [6]): 0.06 to 4 µg/mL | MIC Range (Haemophilus influenzae; [7]): 0.06 to 4 µg/mL | MIC Range (Haemophilus influenzae; [8]): 0.5 to 4 µg/mL | MIC50 (Haemophilus influenzae; [6]): 2 µg/mL (≈ 4.28 µM) | MIC90 (Haemophilus influenzae; [6]): 4 µg/mL (≈ 8.56 µM) | MIC50 (Haemophilus influenzae; [7]): 2 µg/mL (≈ 4.28 µM) | MIC90 (Haemophilus influenzae; [7]): 4 µg/mL (≈ 8.56 µM) | MIC50 (Haemophilus influenzae; [8]): 2 µg/mL (≈ 4.28 µM) | MIC90 (Haemophilus influenzae; [8]): 2 µg/mL (≈ 4.28 µM) | % S (Staphylococcus aureus; [9]): 68.8% | % S (Staphylococcus aureus; [10]): 92.9% | MIC Range (Staphylococcus aureus; [10]): 0.12 to 8 µg/mL | % S (Staphylococcus aureus; Staphylococcus aureus (MRSA, N = 11)): 54.5% | % S (Staphylococcus aureus; [11]): 94.7% | MIC Range (Staphylococcus aureus; [11]): 0.12 to 8 µg/mL | % S (Staphylococcus aureus; [12]): 80.0% | MIC50 (Staphylococcus aureus; [13]): 1 µg/mL (≈ 2.14 µM) | MIC90 (Staphylococcus aureus; [13]): > 32 µg/mL | MIC50 (Staphylococcus aureus; [14]): 0.25 µg/mL (≈ 0.535 µM) | MIC90 (Staphylococcus aureus; [14]): 1 µg/mL (≈ 2.14 µM) | MIC50 (Staphylococcus aureus; [9]): 0.5 µg/mL (≈ 1.07 µM) | MIC90 (Staphylococcus aureus; [9]): > 32 µg/mL | MIC50 (Staphylococcus aureus; [10]): 0.25 µg/mL (≈ 0.535 µM) | MIC90 (Staphylococcus aureus; [10]): 1 µg/mL (≈ 2.14 µM) | MIC50 (Staphylococcus aureus; [12]): 0.5 µg/mL (≈ 1.07 µM) | MIC90 (Staphylococcus aureus; [12]): > 32 µg/mL | % S (Staphylococcus warneri): 86.0% | MIC50 (Staphylococcus warneri): 0.06 µg/mL (≈ 0.128 µM) | MIC90 (Staphylococcus warneri): 8 µg/mL (≈ 17.1 µM) | MIC Range (Streptococcus pyogenes): 4 to 64 µg/mL | MIC50 (Streptococcus pyogenes; read-out: MIC50): 16 µg/mL (≈ 34.2 µM) | MIC90 (Streptococcus pyogenes; read-out: MIC90): 16 µg/mL (≈ 34.2 µM) | MIC Range (Viridans streptococci): 0.5 to 128 µg/mL | MIC50 (Viridans streptococci; read-out: MIC50): 16 µg/mL (≈ 34.2 µM) | MIC90 (Viridans streptococci; read-out: MIC90): 32 µg/mL (≈ 68.4 µM) | % S (Klebsiella oxytoca): 96.0% | MIC50 (Klebsiella oxytoca): 0.5 µg/mL (≈ 1.07 µM) | MIC90 (Klebsiella oxytoca): 1 µg/mL (≈ 2.14 µM) | MIC Range (Klebsiella oxytoca): 0.25 to 8 µg/mL | MIC Range (Streptococcus pneumoniae; Streptococcus pneumoniae (PISP, N = 2)): 16 to 32 µg/mL | MIC Range (Streptococcus pneumoniae; Streptococcus pneumoniae (PRSP, N = 2)): 16 to 32 µg/mL | MIC50 (Streptococcus pneumoniae; [15]): 16 µg/mL (≈ 34.2 µM) | MIC90 (Streptococcus pneumoniae; [15]): 32 µg/mL (≈ 68.4 µM) | MIC Range (Streptococcus pneumoniae; [15]): 8 to 32 µg/mL | MIC Range (Streptococcus pneumoniae; Streptococcus pneumoniae (all phenotypes, N = 35)): 8 to 32 µg/mL | MIC50 (Streptococcus pneumoniae; Streptococcus pneumoniae (all phenotypes, N = 35), read-out: MIC50): 16 µg/mL (≈ 34.2 µM) | MIC90 (Streptococcus pneumoniae; Streptococcus pneumoniae (all phenotypes, N = 35), read-out: MIC90): 32 µg/mL (≈ 68.4 µM) | % S [5, 16]: 83.3% | MIC Range [5, 16]: 0.06 to 16 µg/mL | % S [5, 17]: 88.9% | MIC Range [5, 17]: ≦0.008-8 μg/mL | % S [5, 18]: 77.8% | MIC Range [5, 18]: 0.03 to 16 µg/mL | % S [5, 19]: 100.0% | MIC Range [5, 19]: ≦0.008-0.06 μg/mL | % S [5, 20]: 86.7% | MIC90 [5, 20]: 8 µg/mL (≈ 17.1 µM) | MIC Range [5, 20]: ≦0.008-16 μg/mL | MIC50 ([5]; MRSE, Staphylococcus epidermidis (MRSE, N = 9)): 4 µg/mL (≈ 8.56 µM) | MIC50 [5, 16]: 2 µg/mL (≈ 4.28 µM) | MIC50 [5, 17]: 0.03 µg/mL (≈ 0.0642 µM) | MIC50 [5, 19]: 0.03 µg/mL (≈ 0.0642 µM) | MIC50 [5, 20]: 0.06 µg/mL (≈ 0.128 µM) | % S (Staphylococcus hominis): 32.0% | MIC50 (Staphylococcus hominis): 16 µg/mL (≈ 34.2 µM) | MIC90 (Staphylococcus hominis): 32 µg/mL (≈ 68.4 µM) | % S (Morganella morganii): 90.2% | MIC50 (Morganella morganii): 1 µg/mL (≈ 2.14 µM) | MIC90 (Morganella morganii): 4 µg/mL (≈ 8.56 µM) | MIC Range (Morganella morganii): 0.25 to 32 µg/mL
